US20100137449A1, “SUBSTITUTED 1,3-CYCLOPENTADIONE MULTI-TARGET PROTEIN KINASE MODULATORS OF CANCER, ANGIOGENESIS AND THE INFLAMMATORY PATHWAYS ASSOCIATED THEREWITH” (METAPROTEOMICS, LLC, priority 2007, published 2010)

Tests used:
Experiment in all cases: KinaseProfiler Assay
ALK4(h) = molecular target: T1, ALK4(h) (Homo sapiens, UniProt P36896)
T1 sequence (P36896 24-505): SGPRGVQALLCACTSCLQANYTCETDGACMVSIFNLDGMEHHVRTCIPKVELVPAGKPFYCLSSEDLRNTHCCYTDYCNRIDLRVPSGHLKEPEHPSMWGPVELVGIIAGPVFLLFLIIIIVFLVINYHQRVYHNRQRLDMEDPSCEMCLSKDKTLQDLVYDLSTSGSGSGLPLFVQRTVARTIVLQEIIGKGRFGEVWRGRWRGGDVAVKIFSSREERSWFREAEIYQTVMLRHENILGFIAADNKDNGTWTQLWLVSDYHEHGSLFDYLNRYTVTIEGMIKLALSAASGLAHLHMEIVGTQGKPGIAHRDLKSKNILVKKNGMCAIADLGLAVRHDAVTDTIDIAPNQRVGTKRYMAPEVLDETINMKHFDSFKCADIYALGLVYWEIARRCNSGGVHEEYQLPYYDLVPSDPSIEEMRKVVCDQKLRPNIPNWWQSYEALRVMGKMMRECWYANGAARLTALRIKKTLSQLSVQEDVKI

EphB3(h) = molecular target: T2, EphB3(h) (Homo sapiens, UniProt P54753)
T2 sequence (P54753 34-998): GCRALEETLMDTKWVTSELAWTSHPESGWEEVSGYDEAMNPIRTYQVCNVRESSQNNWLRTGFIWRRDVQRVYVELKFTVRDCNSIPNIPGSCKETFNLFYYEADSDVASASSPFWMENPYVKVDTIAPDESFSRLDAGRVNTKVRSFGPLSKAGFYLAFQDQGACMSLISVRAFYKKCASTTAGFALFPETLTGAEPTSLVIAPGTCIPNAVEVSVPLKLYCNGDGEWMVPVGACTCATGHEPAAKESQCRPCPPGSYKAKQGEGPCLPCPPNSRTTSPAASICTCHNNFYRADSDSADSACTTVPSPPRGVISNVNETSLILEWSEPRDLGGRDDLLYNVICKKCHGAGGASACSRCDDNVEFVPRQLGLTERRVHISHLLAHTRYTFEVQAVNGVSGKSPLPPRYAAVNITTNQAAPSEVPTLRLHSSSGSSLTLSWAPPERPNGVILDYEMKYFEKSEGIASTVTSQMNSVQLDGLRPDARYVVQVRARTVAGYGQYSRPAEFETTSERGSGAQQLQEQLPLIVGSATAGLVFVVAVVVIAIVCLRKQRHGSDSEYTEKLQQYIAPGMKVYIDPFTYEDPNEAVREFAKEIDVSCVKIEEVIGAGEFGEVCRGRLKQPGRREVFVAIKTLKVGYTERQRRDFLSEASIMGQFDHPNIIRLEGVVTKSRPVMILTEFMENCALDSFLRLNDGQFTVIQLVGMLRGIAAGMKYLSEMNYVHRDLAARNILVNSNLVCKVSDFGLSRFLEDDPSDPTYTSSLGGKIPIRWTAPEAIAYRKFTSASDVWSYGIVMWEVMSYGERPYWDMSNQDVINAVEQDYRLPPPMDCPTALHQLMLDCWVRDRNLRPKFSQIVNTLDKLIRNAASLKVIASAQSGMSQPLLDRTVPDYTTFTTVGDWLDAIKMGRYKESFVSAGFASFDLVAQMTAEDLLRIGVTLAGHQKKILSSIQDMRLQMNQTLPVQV

PDGFRα(V561D)(h) = PDGFRα(V561D)(h) (Homo sapiens, UniProt P16234, V561D)
WNK3(h) = WNK3(h) (Homo sapiens, UniProt Q9BYP7)
CaMKIIβ(h) = CaMKIIβ(h) (Homo sapiens, UniProt Q13554)
PKCγ(h) = PKCγ(h) (Homo sapiens, UniProt P05129)
CLK2(h) = CLK2(h) (Homo sapiens, UniProt P49760)
ALK(h) = ALK(h) (Homo sapiens, UniProt Q9UM73)
Pim-2(h) = Pim-2(h) (Homo sapiens, UniProt Q9P1W9)
MSK2(h) = MSK2(h) (Homo sapiens, UniProt O75676)
Lyn(m) = Lyn(m) (Mus musculus, UniProt P25911)
CaMKII(r) = molecular target: CaMKII(r)

Sequence of ALK(h) (Q9UM73 19-1620): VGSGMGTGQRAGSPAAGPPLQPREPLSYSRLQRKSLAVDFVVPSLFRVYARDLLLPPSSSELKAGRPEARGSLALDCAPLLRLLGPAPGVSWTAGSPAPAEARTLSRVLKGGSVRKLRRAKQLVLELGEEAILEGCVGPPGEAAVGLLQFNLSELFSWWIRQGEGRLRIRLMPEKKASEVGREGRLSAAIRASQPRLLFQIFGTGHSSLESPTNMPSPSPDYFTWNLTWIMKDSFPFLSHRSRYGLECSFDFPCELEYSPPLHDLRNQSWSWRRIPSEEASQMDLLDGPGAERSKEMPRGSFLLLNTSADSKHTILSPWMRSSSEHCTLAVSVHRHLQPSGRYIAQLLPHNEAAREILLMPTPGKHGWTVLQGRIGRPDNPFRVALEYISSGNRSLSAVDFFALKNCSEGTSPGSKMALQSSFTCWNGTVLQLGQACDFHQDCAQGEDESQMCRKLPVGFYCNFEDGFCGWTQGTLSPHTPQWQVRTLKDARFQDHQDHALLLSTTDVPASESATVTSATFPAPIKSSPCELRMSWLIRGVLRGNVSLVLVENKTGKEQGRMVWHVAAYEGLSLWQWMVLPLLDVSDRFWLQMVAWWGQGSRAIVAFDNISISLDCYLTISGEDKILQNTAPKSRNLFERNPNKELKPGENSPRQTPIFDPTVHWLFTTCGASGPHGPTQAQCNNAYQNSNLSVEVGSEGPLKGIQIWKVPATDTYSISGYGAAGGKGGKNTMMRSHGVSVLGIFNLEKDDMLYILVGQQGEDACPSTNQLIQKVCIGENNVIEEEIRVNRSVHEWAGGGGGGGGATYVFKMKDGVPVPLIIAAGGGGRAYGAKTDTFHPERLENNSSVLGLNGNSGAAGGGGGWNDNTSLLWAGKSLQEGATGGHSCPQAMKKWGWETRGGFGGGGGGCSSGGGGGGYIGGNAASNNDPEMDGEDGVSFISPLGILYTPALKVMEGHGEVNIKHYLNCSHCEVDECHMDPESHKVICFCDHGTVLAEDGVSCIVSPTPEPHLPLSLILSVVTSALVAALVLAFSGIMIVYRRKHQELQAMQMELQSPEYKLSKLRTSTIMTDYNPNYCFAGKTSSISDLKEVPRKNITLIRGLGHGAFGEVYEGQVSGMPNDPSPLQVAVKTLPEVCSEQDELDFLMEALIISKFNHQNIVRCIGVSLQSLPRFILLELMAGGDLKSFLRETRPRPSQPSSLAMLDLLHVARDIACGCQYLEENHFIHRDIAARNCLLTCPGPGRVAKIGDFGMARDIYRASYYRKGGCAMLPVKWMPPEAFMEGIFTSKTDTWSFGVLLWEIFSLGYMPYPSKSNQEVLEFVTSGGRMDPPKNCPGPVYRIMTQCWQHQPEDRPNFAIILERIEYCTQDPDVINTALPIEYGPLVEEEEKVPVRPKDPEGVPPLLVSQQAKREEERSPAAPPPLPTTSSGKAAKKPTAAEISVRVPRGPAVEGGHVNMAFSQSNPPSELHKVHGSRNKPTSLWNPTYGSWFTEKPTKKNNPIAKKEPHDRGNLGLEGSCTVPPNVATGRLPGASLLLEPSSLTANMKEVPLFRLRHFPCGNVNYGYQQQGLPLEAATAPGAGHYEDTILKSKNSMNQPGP
Sequence of MSK2(h) (O75676 whole entry): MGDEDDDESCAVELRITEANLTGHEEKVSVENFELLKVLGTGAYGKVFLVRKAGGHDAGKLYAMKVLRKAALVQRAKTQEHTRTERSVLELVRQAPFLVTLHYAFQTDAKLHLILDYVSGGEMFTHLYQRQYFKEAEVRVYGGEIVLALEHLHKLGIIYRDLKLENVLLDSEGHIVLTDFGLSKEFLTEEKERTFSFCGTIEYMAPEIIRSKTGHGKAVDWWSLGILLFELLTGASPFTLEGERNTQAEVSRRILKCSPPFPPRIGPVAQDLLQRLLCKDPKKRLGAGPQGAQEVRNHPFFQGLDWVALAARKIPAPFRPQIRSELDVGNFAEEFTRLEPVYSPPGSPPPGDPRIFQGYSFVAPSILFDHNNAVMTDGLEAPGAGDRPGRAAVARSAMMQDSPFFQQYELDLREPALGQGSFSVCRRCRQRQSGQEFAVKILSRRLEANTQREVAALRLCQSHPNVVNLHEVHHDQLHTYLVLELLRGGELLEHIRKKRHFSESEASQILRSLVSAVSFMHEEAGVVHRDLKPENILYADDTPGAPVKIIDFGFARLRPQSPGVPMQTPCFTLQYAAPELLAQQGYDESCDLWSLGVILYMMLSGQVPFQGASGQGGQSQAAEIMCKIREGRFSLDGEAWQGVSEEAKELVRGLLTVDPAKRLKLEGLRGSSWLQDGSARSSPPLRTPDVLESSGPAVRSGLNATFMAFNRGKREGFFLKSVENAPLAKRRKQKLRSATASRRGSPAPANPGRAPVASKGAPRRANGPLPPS
Sequence of Lyn(m) (P25911 whole entry): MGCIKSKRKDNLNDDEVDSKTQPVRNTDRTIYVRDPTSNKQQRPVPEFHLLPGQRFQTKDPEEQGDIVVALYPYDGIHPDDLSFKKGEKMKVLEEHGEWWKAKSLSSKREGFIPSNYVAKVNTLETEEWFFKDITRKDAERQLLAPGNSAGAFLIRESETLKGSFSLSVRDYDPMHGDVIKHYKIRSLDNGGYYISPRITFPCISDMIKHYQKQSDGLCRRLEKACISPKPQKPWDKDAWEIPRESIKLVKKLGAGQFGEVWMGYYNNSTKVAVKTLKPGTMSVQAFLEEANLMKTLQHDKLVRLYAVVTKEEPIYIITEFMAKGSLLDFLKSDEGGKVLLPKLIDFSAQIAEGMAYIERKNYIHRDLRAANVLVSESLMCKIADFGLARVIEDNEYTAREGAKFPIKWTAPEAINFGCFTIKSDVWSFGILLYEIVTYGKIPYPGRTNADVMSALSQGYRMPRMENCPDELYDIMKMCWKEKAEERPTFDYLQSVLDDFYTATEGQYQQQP
Sequence of CaMKIIβ(h) (Q13554 whole entry): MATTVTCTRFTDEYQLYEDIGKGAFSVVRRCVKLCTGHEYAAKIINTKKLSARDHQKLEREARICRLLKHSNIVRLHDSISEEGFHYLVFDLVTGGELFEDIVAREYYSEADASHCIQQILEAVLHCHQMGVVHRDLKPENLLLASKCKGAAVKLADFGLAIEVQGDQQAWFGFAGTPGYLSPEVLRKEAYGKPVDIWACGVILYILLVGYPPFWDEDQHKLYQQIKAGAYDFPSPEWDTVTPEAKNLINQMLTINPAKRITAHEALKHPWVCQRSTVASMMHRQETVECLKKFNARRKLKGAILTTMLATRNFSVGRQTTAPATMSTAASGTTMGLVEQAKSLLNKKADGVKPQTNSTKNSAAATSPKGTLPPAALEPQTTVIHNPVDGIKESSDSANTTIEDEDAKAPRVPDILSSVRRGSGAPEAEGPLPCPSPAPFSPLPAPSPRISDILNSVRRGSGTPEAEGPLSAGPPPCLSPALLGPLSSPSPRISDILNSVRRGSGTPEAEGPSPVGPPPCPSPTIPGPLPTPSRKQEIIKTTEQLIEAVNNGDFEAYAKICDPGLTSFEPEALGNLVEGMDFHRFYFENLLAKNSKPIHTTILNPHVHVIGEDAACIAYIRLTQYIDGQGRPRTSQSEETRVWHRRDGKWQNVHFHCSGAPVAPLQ
Sequence of CLK2(h) (P49760 whole entry): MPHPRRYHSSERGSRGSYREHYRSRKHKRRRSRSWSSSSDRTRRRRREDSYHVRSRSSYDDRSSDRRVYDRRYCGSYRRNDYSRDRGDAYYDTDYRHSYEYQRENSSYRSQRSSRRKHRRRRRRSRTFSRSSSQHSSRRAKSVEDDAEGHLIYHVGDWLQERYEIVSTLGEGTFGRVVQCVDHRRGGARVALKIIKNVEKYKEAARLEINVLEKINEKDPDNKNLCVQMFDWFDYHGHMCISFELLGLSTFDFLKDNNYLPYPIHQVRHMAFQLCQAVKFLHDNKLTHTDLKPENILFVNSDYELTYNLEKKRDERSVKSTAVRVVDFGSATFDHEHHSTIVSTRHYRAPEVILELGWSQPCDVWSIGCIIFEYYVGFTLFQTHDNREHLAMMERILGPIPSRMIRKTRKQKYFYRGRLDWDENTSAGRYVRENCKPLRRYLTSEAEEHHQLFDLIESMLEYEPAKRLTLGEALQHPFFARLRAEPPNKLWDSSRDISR
Sequence of Pim-2(h) (Q9P1W9 whole entry): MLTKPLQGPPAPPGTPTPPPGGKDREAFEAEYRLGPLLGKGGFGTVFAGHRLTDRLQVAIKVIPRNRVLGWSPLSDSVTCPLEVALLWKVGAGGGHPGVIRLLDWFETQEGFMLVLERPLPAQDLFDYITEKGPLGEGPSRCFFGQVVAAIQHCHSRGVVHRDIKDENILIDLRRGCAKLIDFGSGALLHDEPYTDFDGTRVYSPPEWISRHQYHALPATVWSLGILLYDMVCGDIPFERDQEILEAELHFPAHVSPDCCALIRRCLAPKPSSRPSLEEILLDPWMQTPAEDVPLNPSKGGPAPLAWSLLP

SMILES: CC(C)CCC(=O)[C@]1(O)C(O)=C(C(=O)C(C)C)C(=O)[C@H]1CCC(C)C [TH2, tetrahydroiso-cohumulone]
- kinase inhibition (ALK4(h); 1 μg/ml): 109% of control
- kinase inhibition (ALK4(h); 5 μg/ml): 104% of control
- kinase inhibition (ALK4(h); 25 μg/ml): 97% of control
- kinase inhibition (ALK4(h); 50 μg/ml): 83% of control
- kinase inhibition (ALK4(h); 100 μg/ml): 63% of control
- kinase inhibition (EphB3(h); 1 μg/ml): 80% of control
- kinase inhibition (EphB3(h); 5 μg/ml): 71% of control
- kinase inhibition (EphB3(h); 25 μg/ml): 69% of control
- kinase inhibition (EphB3(h); 50 μg/ml): 62% of control
- kinase inhibition (EphB3(h); 100 μg/ml): 57% of control
- kinase inhibition (PDGFRα(V561D)(h); 1 μg/ml): 115% of control
- kinase inhibition (PDGFRα(V561D)(h); 5 μg/ml): 126% of control
- kinase inhibition (PDGFRα(V561D)(h); 25 μg/ml): 116% of control
- kinase inhibition (PDGFRα(V561D)(h); 50 μg/ml): 111% of control
- kinase inhibition (PDGFRα(V561D)(h); 100 μg/ml): 103% of control
- kinase inhibition (WNK3(h); 1 μg/ml): 111% of control
- kinase inhibition (WNK3(h); 5 μg/ml): 113% of control
- kinase inhibition (WNK3(h); 25 μg/ml): 109% of control
- kinase inhibition (WNK3(h); 50 μg/ml): 113% of control
- kinase inhibition (WNK3(h); 100 μg/ml): 111% of control
- kinase inhibition (CaMKIIβ(h); 1 μg/ml): 103% of control
- kinase inhibition (CaMKIIβ(h); 5 μg/ml): 106% of control
- kinase inhibition (CaMKIIβ(h); 25 μg/ml): 95% of control
- kinase inhibition (CaMKIIβ(h); 50 μg/ml): 83% of control
- kinase inhibition (CaMKIIβ(h); 100 μg/ml): 66% of control
- kinase inhibition (PKCγ(h); 1 μg/ml): 102% of control
- kinase inhibition (PKCγ(h); 5 μg/ml): 107% of control
- kinase inhibition (PKCγ(h); 25 μg/ml): 101% of control
- kinase inhibition (PKCγ(h); 50 μg/ml): 91% of control
- kinase inhibition (PKCγ(h); 100 μg/ml): 99% of control
- kinase inhibition (CLK2(h); 1 μg/ml): 103% of control
- kinase inhibition (CLK2(h); 5 μg/ml): 100% of control
- kinase inhibition (CLK2(h); 25 μg/ml): 110% of control
- kinase inhibition (CLK2(h); 50 μg/ml): 101% of control
- kinase inhibition (CLK2(h); 100 μg/ml): 96% of control
- kinase inhibition (ALK(h); 1 μg/ml): 80% of control
- kinase inhibition (ALK(h); 5 μg/ml): 59% of control
- kinase inhibition (ALK(h); 25 μg/ml): 21% of control
- kinase inhibition (ALK(h); 50 μg/ml): 21% of control
- kinase inhibition (ALK(h); 100 μg/ml): 23% of control
- kinase inhibition (Pim-2(h); 1 μg/ml): 103% of control
- kinase inhibition (Pim-2(h); 5 μg/ml): 111% of control
- kinase inhibition (Pim-2(h); 25 μg/ml): 77% of control
- kinase inhibition (Pim-2(h); 50 μg/ml): 73% of control
- kinase inhibition (Pim-2(h); 100 μg/ml): 67% of control
- kinase inhibition (MSK2(h); 1 μg/ml): 99% of control
- kinase inhibition (MSK2(h); 5 μg/ml): 94% of control
- kinase inhibition (MSK2(h); 25 μg/ml): 70% of control
- kinase inhibition (MSK2(h); 50 μg/ml): 51% of control
- kinase inhibition (MSK2(h); 100 μg/ml): 37% of control
- kinase inhibition (Lyn(m); 1 μg/ml): 116% of control
- kinase inhibition (Lyn(m); 5 μg/ml): 110% of control
- kinase inhibition (Lyn(m); 25 μg/ml): 76% of control
- kinase inhibition (Lyn(m); 50 μg/ml): 58% of control
- kinase inhibition (Lyn(m); 100 μg/ml): 68% of control
- kinase inhibition (CaMKII(r); 1 μg/ml): 105% of control
- kinase inhibition (CaMKII(r); 5 μg/ml): 106% of control
- kinase inhibition (CaMKII(r); 25 μg/ml): 105% of control
- kinase inhibition (CaMKII(r); 50 μg/ml): 91% of control
- kinase inhibition (CaMKII(r); 100 μg/ml): 63% of control
